# Molecular target: Neuropilin-1 (Homo sapiens, UniProt O14786)
# Sequence (O14786 whole entry): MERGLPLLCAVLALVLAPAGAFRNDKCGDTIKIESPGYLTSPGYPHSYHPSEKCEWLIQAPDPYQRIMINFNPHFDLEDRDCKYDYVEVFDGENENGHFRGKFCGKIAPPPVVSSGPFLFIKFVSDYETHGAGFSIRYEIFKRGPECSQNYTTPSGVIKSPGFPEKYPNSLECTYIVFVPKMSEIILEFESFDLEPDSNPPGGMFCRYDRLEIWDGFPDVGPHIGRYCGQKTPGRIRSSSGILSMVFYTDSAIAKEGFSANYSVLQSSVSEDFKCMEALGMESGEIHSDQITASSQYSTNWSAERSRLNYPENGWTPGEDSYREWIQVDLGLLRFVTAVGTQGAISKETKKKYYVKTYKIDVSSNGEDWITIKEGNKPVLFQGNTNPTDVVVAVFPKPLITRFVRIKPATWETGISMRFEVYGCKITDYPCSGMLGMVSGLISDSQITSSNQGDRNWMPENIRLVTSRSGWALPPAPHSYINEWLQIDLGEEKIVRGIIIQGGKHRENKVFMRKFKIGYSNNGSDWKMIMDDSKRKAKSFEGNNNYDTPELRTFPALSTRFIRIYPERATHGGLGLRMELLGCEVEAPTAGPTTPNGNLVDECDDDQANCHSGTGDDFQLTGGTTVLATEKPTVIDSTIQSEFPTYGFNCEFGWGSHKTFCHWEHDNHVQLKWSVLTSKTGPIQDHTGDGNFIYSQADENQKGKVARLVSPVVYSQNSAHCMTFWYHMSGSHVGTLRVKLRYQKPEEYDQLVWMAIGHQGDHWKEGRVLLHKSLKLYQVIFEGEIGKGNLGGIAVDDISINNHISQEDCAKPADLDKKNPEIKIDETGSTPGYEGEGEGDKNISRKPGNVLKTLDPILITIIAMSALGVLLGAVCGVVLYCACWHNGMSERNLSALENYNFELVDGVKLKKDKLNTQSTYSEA
row,Structure (SMILES),IC50 [µM]
1,CCC(NCCc1ccccc1)=C1C(=O)NC(=O)N(C2CCCCC2)C1=O [MLS000557927],> 95
2,"CCOc1ccc(-n2c(O)cc(N3CCN(c4ccc(Cl)cc4)CC3)c2O)cc1 [3-[4-(4-Chloro-phenyl)-piperazin-1-yl]-1-(4-ethoxy-phenyl)-pyrrolidine-2,5-dione]",> 95
3,CCOC(=O)C1C(=O)C(=O)N(c2ccccc2)C1c1cccc([N+](=O)[O-])c1 (configuration not stated) [ethyl 2-(3-nitrophenyl)-4-oxidanyl-5-oxidanylidene-1-phenyl-2H-pyrrole-3-carboxylate],> 95
4,CC(C)C1=NC(=O)NC2CCCCC12 (configuration not stated) [SMR000060291],> 95
5,"CCOC(=O)C1=C(C)N=C2CCCC(=O)C2C1c1cn(Cc2ccc(Cl)cc2Cl)nc1-c1ccccc1 (configuration not stated) [4-[1-[(2,4-dichlorophenyl)methyl]-3-phenyl-4-pyrazolyl]-2-methyl-5-oxo-4,6,7,8-tetrahydro-1H-quinoline-3-carboxylic acid ethyl ester]",> 95
6,O=C(Cc1ncnc2c1ncn2C1OC(CO)C(O)C1O)c1ccccc1 (configuration not stated),> 95
7,CCC1=C(OC(=O)N(CC)CC)N2C(=O)O/C(=N\CCOC)[C@]2(Cc2ccccc2)[C@H]2C1=CC[C@H]1C(=O)N(CC(=O)OC)C(=O)[C@H]12 [SMR000440375],> 95
8,Cc1ccc2c(c1)=C(c1ccncc1)NN=C(c1ccc(F)cc1)N=2 [MLS000692744],> 95
9,CCC1=C(OC(=O)N(CC)CC)N2C(=O)O/C(=N\CC(=O)OC)[C@]2(C)[C@H]2C1=CC[C@H]1C(=O)N(CC)C(=O)[C@H]12 [SMR000440357],> 95
10,Cn1cccc1C1Nc2ccccc2N=C2CC(C)(C)CC(=O)C21 (configuration not stated) [MLS000533228],> 95
11,"COc1ccc2c(c1)N(C)/C(=C1/S/C(=N\Cc3ccccc3)N(c3ccccc3)C1=O)S2 [(5Z)-5-(5-methoxy-3-methyl-1,3-benzothiazol-2-ylidene)-3-phenyl-2-(phenylmethyl)imino-1,3-thiazolidin-4-one]",> 95
12,COc1ccc(-n2c(O)cc(SCCc3nc4ccccc4[nH]3)c2O)cc1 [SMR000200354],> 95
13,CCC1=C(OC(=O)N(CC)CC)N2C(=O)O/C(=N\CC(=O)OC)[C@]2(Cc2ccccc2)[C@H]2C1=CC[C@H]1C(=O)N(CC(=O)OC)C(=O)[C@H]12 [MLS000877797],> 95
14,"COc1cccc(N2[C@@H](CC(C)=O)c3ccc(C=CC(C)=O)cc3S2(=O)=O)c1 [(E)-4-[(3S)-2-(3-methoxyphenyl)-1,1-bis(oxidanylidene)-3-(2-oxidanylidenepropyl)-3H-1,2-benzothiazol-6-yl]but-3-en-2-one]",> 95
15,Cc1ccc(CN=Nc2nc3ccccc3[nH]2)s1 [SMR000261490],> 95
16,CCC1=C(OC(=O)N(CC)CC)N2C(=O)O/C(=N\CC3CC3)[C@]2(Cc2ccccc2)[C@H]2C1=CC[C@H]1C(=O)N(C)C(=O)[C@H]12 [SMR000440396],> 95
17,CC1(c2ccccc2)CC(C)(C)N2C(=O)/C(=C3/NC(=S)NC3=O)c3cccc1c32 (configuration not stated) [SMR000221518],> 95
18,"COC(=O)C1=C(C)N=C(C)C(C(=O)OC)C1C(=O)OC(C)C(=O)c1ccccc1 (configuration not stated) [2,6-dimethyl-1,4-dihydropyridine-3,4,5-tricarboxylic acid O3,O5-dimethyl ester O4-(1-oxo-1-phenylpropan-2-yl) ester]",> 95
19,"C=CCN1C(=O)C2(c3ccccc3OC(=N)C2C(=O)OCC)c2c1c1ccccc1oc2=O (configuration not stated) [2-amino-2',4'-dioxo-1'-prop-2-enyl-3-spiro[1-benzopyran-4,3'-[1]benzopyrano[4,3-b]pyrrole]carboxylic acid ethyl ester]",> 95
20,C=CCOc1ccc(C2C(C(=O)c3c(C)[nH]c(C(=O)OC)c3C)C(=O)C(=O)N2CCN(C)C)cc1 (configuration not stated) [MLS000081294],> 95
21,Cc1cc2c(cc1C)NC(c1nc3ccccc3[nH]1)C1C(=O)CC(C)(C)CC1=N2 (configuration not stated) [SMR000120514],> 95
22,Cc1ccc(N=CC(S(=O)(=O)c2ccccc2)S(=O)(=O)c2ccccc2)cc1,> 95

# Source: BindingDB's records for doi:10.7270/Q2HM5725 (Burnham Center For Chemical Genomics, 2012)
